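Method: 48-hour compound exposure of cells in 96-well plates, five concentrations, linear interpolation of endpoints. GI50 is the concentration that inhibits growth by half.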 Calls of active or inactive are those of the source. No stated cut-off is given here; in the data, active = GI50 up to about 1.1 µM and inactive = higher.
Columns and labels:
Assay in all cases: NCI-60 cell line screen, 48 h
SK-MEL-2 = tested on: SK-MEL-2
COLO 205 = tested on: COLO 205
K562 = tested on: K562
MDA-MB-435 = tested on: MDA-MB-435
PC-3 = tested on: PC-3
TK-10 = tested on: TK-10
SK-OV-3 = tested on: SK-OV-3
SF-268 = tested on: SF-268
OVCAR-8 = tested on: OVCAR-8
CCRF-CEM = tested on: CCRF-CEM
RXF 393 = tested on: RXF 393
RPMI-8226 = tested on: RPMI-8226
CAKI-1 = tested on: CAKI-1
NCI-H226 = tested on: NCI-H226
HCT-116 = tested on: HCT-116
ACHN = tested on: ACHN
EKVX = tested on: EKVX
HT-29 = tested on: HT-29
SF-539 = tested on: SF-539
HOP-92 = tested on: HOP-92

Compound: Oc1ccc(-c2nc(-c3cccnc3)c(-c3ccc(Cl)cc3)[nH]2)cc1O
- GI50 (SK-MEL-2): 17.8 µM (inactive)
- GI50 (COLO 205): 13.9 µM (inactive)
- GI50 (K562): > 100 µM (inactive)
- GI50 (MDA-MB-435): 13.8 µM (inactive)
- GI50 (PC-3): 9.2 µM (inactive)
- GI50 (TK-10): 10.4 µM (inactive)
- GI50 (SK-OV-3): 12.4 µM (inactive)
- GI50 (SF-268): 11.5 µM (inactive)
- GI50 (OVCAR-8): 11.9 µM (inactive)
- GI50 (CCRF-CEM): 4.48 µM (inactive)
- GI50 (RXF 393): 12.7 µM (inactive)
- GI50 (RPMI-8226): > 100 µM (inactive)
- GI50 (CAKI-1): 15.1 µM (inactive)
- GI50 (NCI-H226): 16.2 µM (inactive)
- GI50 (HCT-116): 11.7 µM (inactive)
- GI50 (ACHN): 9.95 µM (inactive)
- GI50 (EKVX): 18 µM (inactive)
- GI50 (HT-29): 14.6 µM (inactive)

Compound: COC(=O)C1=C(OC(=O)c2ccccc2)C(C(=O)OC)[C@@]2(O)[C@@H](C(=O)OC)[C@H](C)C[C@@H]1[C@@H]2C(=O)OC (stereo not given in full)
- GI50 (SK-MEL-2): 58.2 µM (inactive)
- GI50 (COLO 205): 17.6 µM (inactive)
- GI50 (SF-539): 14.5 µM (inactive)
- GI50 (MDA-MB-435): 25.3 µM (inactive)
- GI50 (PC-3): 37.2 µM (inactive)
- GI50 (TK-10): 75.9 µM (inactive)
- GI50 (SK-OV-3): 29.5 µM (inactive)
- GI50 (SF-268): 47.8 µM (inactive)
- GI50 (OVCAR-8): 26.4 µM (inactive)
- GI50 (CCRF-CEM): 8.89 µM (inactive)
- GI50 (RXF 393): 14.4 µM (inactive)
- GI50 (RPMI-8226): 19 µM (inactive)
- GI50 (CAKI-1): 42.2 µM (inactive)
- GI50 (NCI-H226): 45.5 µM (inactive)
- GI50 (HCT-116): 36 µM (inactive)
- GI50 (ACHN): 31.6 µM (inactive)
- GI50 (EKVX): 31.6 µM (inactive)
- GI50 (HT-29): 34.6 µM (inactive)

Compound: CN(C)CCNC(=O)c1cccc2c(NC(CCCNC(=N)N)C(=O)O)c3ccccc3nc12 (stereo not given)
- GI50 (SK-MEL-2): 13.8 µM (inactive)
- GI50 (COLO 205): 6.22 µM (inactive)
- GI50 (K562): 5.68 µM (inactive)
- GI50 (MDA-MB-435): 10.1 µM (inactive)
- GI50 (PC-3): 9.1 µM (inactive)
- GI50 (TK-10): 21.1 µM (inactive)
- GI50 (SK-OV-3): 12.6 µM (inactive)
- GI50 (SF-268): 9.2 µM (inactive)
- GI50 (OVCAR-8): 4.13 µM (inactive)
- GI50 (CCRF-CEM): 15.3 µM (inactive)
- GI50 (RPMI-8226): 6.59 µM (inactive)
- GI50 (NCI-H226): 3.88 µM (inactive)
- GI50 (HOP-92): 3.85 µM (inactive)
- GI50 (HCT-116): 3.93 µM (inactive)
- GI50 (ACHN): 2.79 µM (inactive)
- GI50 (EKVX): 3.48 µM (inactive)
- GI50 (HT-29): 2.7 µM (inactive)

Compound: O=C1c2scc(-c3ccc(F)cc3)c2-n2cccc21
- GI50 (SK-MEL-2): 35.2 µM (inactive)
- GI50 (COLO 205): 44.9 µM (inactive)
- GI50 (MDA-MB-435): 11.1 µM (inactive)
- GI50 (PC-3): 29.9 µM (inactive)
- GI50 (TK-10): 45.3 µM (inactive)
- GI50 (SK-OV-3): 40.6 µM (inactive)
- GI50 (SF-268): 36.4 µM (inactive)
- GI50 (OVCAR-8): 57.7 µM (inactive)
- GI50 (CCRF-CEM): 28.6 µM (inactive)
- GI50 (RXF 393): 26.1 µM (inactive)
- GI50 (RPMI-8226): 24.5 µM (inactive)
- GI50 (CAKI-1): 10.3 µM (inactive)
- GI50 (NCI-H226): 28.1 µM (inactive)
- GI50 (HCT-116): 18.2 µM (inactive)
- GI50 (ACHN): 39.7 µM (inactive)
- GI50 (EKVX): 24.4 µM (inactive)
- GI50 (HT-29): 20.8 µM (inactive)

Compound: CC1(C)C2CCC(=O)C1C(OCc1ccccc1)C2 (stereo not given)
- GI50 (SK-MEL-2): > 100 µM (inactive)
- GI50 (COLO 205): > 100 µM (inactive)
- GI50 (K562): 96.4 µM (inactive)
- GI50 (SF-539): > 100 µM (inactive)
- GI50 (MDA-MB-435): > 100 µM (inactive)
- GI50 (PC-3): > 100 µM (inactive)
- GI50 (TK-10): > 100 µM (inactive)
- GI50 (SK-OV-3): > 100 µM (inactive)
- GI50 (SF-268): > 100 µM (inactive)
- GI50 (OVCAR-8): > 100 µM (inactive)
- GI50 (CCRF-CEM): > 100 µM (inactive)
- GI50 (RXF 393): > 100 µM (inactive)
- GI50 (RPMI-8226): > 100 µM (inactive)
- GI50 (CAKI-1): 24.1 µM (inactive)
- GI50 (NCI-H226): > 100 µM (inactive)
- GI50 (HCT-116): > 100 µM (inactive)
- GI50 (ACHN): > 100 µM (inactive)
- GI50 (HT-29): > 100 µM (inactive)

Compound: O=C(O)Cc1ccc(Oc2nc3ccccc3nc2C(=O)O)cc1
- GI50 (SK-MEL-2): > 100 µM (inactive)
- GI50 (COLO 205): > 100 µM (inactive)
- GI50 (K562): 0.0849 µM (active)
- GI50 (SF-539): > 100 µM (inactive)
- GI50 (MDA-MB-435): 12.8 µM (inactive)
- GI50 (PC-3): > 100 µM (inactive)
- GI50 (TK-10): > 100 µM (inactive)
- GI50 (SK-OV-3): > 100 µM (inactive)
- GI50 (SF-268): > 100 µM (inactive)
- GI50 (OVCAR-8): > 100 µM (inactive)
- GI50 (CCRF-CEM): > 100 µM (inactive)
- GI50 (RPMI-8226): > 100 µM (inactive)
- GI50 (CAKI-1): 96.8 µM (inactive)
- GI50 (NCI-H226): > 100 µM (inactive)
- GI50 (HOP-92): 79.1 µM (inactive)
- GI50 (HCT-116): > 100 µM (inactive)
- GI50 (ACHN): > 100 µM (inactive)
- GI50 (EKVX): > 100 µM (inactive)
- GI50 (HT-29): > 100 µM (inactive)

Compound: COC1OC(=O)C(OC)C(OC)C1OC (stereo not given)
- GI50 (SK-MEL-2): > 100 µM (inactive)
- GI50 (COLO 205): > 100 µM (inactive)
- GI50 (K562): > 100 µM (inactive)
- GI50 (SF-539): > 100 µM (inactive)
- GI50 (MDA-MB-435): > 100 µM (inactive)
- GI50 (PC-3): > 100 µM (inactive)
- GI50 (TK-10): > 100 µM (inactive)
- GI50 (SK-OV-3): > 100 µM (inactive)
- GI50 (SF-268): > 100 µM (inactive)
- GI50 (OVCAR-8): 88.3 µM (inactive)
- GI50 (RPMI-8226): > 100 µM (inactive)
- GI50 (CAKI-1): > 100 µM (inactive)
- GI50 (NCI-H226): > 100 µM (inactive)
- GI50 (HOP-92): > 100 µM (inactive)
- GI50 (HCT-116): > 100 µM (inactive)
- GI50 (ACHN): > 100 µM (inactive)
- GI50 (EKVX): > 100 µM (inactive)
- GI50 (HT-29): > 100 µM (inactive)

Compound: Cn1c(=O)c2c(ncn2CCNC(CO)C(O)c2ccc([N+](=O)[O-])cc2)n(C)c1=O (stereo not given)
- GI50 (SK-MEL-2): > 100 µM (inactive)
- GI50 (COLO 205): > 100 µM (inactive)
- GI50 (K562): > 100 µM (inactive)
- GI50 (SF-539): > 100 µM (inactive)
- GI50 (MDA-MB-435): > 100 µM (inactive)
- GI50 (PC-3): > 100 µM (inactive)
- GI50 (TK-10): > 100 µM (inactive)
- GI50 (SK-OV-3): > 100 µM (inactive)
- GI50 (SF-268): > 100 µM (inactive)
- GI50 (OVCAR-8): > 100 µM (inactive)
- GI50 (CCRF-CEM): > 100 µM (inactive)
- GI50 (RPMI-8226): > 100 µM (inactive)
- GI50 (CAKI-1): > 100 µM (inactive)
- GI50 (NCI-H226): > 100 µM (inactive)
- GI50 (HOP-92): > 100 µM (inactive)
- GI50 (HCT-116): > 100 µM (inactive)
- GI50 (ACHN): > 100 µM (inactive)
- GI50 (EKVX): > 100 µM (inactive)
- GI50 (HT-29): > 100 µM (inactive)

Compound: Cc1ccc2c(c1)NC(c1ccc(C(=O)O)cc1)c1cccn1-2 (stereo not given)
- GI50 (SK-MEL-2): 43.9 µM (inactive)
- GI50 (COLO 205): > 100 µM (inactive)
- GI50 (K562): > 100 µM (inactive)
- GI50 (SF-539): > 100 µM (inactive)
- GI50 (MDA-MB-435): 5.16 µM (inactive)
- GI50 (PC-3): 32.7 µM (inactive)
- GI50 (TK-10): 30.8 µM (inactive)
- GI50 (SK-OV-3): 22.4 µM (inactive)
- GI50 (CCRF-CEM): > 100 µM (inactive)
- GI50 (RXF 393): 19.7 µM (inactive)
- GI50 (RPMI-8226): > 100 µM (inactive)
- GI50 (CAKI-1): 15.6 µM (inactive)
- GI50 (NCI-H226): > 100 µM (inactive)
- GI50 (HCT-116): 47.9 µM (inactive)
- GI50 (ACHN): 19.3 µM (inactive)
- GI50 (EKVX): 22.1 µM (inactive)
- GI50 (HT-29): 78.3 µM (inactive)

Compound: N=C(NCc1ccccc1)N/N=C\c1ccnc2ccccc12
- GI50 (SK-MEL-2): 9.73 µM (inactive)
- GI50 (COLO 205): 1.71 µM (inactive)
- GI50 (K562): 4.31 µM (inactive)
- GI50 (SF-539): 15.7 µM (inactive)
- GI50 (MDA-MB-435): 9.23 µM (inactive)
- GI50 (PC-3): 15.6 µM (inactive)
- GI50 (TK-10): 14.8 µM (inactive)
- GI50 (SK-OV-3): 15.5 µM (inactive)
- GI50 (SF-268): 12.3 µM (inactive)
- GI50 (OVCAR-8): 13.5 µM (inactive)
- GI50 (CCRF-CEM): 1.87 µM (inactive)
- GI50 (RPMI-8226): 1.29 µM (inactive)
- GI50 (NCI-H226): 17.1 µM (inactive)
- GI50 (HOP-92): 1.43 µM (inactive)
- GI50 (ACHN): 15.3 µM (inactive)
- GI50 (EKVX): 10 µM (inactive)
- GI50 (HT-29): 11.2 µM (inactive)

Compound: Cc1cc(-c2ccc(Cl)cc2)c(C#N)c(=S)n1C1OC(CO)C(O)C(O)C1O (stereo not given)
- GI50 (SK-MEL-2): > 100 µM (inactive)
- GI50 (COLO 205): > 100 µM (inactive)
- GI50 (SF-539): > 100 µM (inactive)
- GI50 (MDA-MB-435): > 100 µM (inactive)
- GI50 (PC-3): > 100 µM (inactive)
- GI50 (TK-10): > 100 µM (inactive)
- GI50 (SK-OV-3): > 100 µM (inactive)
- GI50 (SF-268): > 100 µM (inactive)
- GI50 (OVCAR-8): > 100 µM (inactive)
- GI50 (CCRF-CEM): > 100 µM (inactive)
- GI50 (RXF 393): > 100 µM (inactive)
- GI50 (CAKI-1): > 100 µM (inactive)
- GI50 (NCI-H226): > 100 µM (inactive)
- GI50 (HCT-116): > 100 µM (inactive)
- GI50 (ACHN): > 100 µM (inactive)
- GI50 (EKVX): > 100 µM (inactive)
- GI50 (HT-29): > 100 µM (inactive)

Reference: ChEMBL document CHEMBL1201862, “PubChem BioAssay data set” (2004)
